Laboratory results taken from patent US20060004197A1, “Sulfonamide-based compounds as protein tyrosine kinase inhibitors” (priority 2004, published 2006).

How the values were obtained:
Type in all cases: biochemical
[1] = target: T1, Recombinant human Src (Homo sapiens, UniProt P12931); test: Src tyrosine kinase activity, poly E4Y / 32P-ATP phosphorylation assay; details: for inhibition at 15 µg/mL: Table 6, Formula V compounds, compound at 15 μg/mL, read-out: % Inhibition at 15 μg/mL Src (%)
T1 construct: made in house; host or cells: baculovirus-insect cell system
T1 sequence (P12931 whole entry): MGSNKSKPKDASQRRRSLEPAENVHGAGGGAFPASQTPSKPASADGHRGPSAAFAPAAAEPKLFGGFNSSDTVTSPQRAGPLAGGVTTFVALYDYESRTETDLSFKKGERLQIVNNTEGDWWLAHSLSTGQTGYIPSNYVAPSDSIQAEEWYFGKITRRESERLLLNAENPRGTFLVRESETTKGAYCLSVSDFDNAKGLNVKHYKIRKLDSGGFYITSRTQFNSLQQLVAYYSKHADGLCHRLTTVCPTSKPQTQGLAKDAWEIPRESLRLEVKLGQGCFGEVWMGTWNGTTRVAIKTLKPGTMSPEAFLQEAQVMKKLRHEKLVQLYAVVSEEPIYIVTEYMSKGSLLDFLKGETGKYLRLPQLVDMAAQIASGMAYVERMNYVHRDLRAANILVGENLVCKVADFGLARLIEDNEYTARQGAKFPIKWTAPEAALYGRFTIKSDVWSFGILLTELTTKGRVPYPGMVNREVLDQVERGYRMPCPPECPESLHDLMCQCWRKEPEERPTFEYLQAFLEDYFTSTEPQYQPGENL

[2] = target: Recombinant Csk (Homo sapiens, UniProt P41240); test: Csk tyrosine kinase activity, poly E4Y / 32P-ATP phosphorylation assay
[3] = target: FGF receptor (FGFr); test: FGFr tyrosine kinase activity, poly E4Y / 32P-ATP phosphorylation assay; details: Table 2, Formula I compounds; NI = no inhibition at 100 μg/mL
[4] = Table 2, Formula I compounds, NI = no inhibition at 100 μg/mL
[5] = Table 3, Formula II compounds, NI = no inhibition at 100 μg/mL
[6] = poly E4Y / 32P-ATP, Formula IV compounds

Row | Structure (SMILES) | IC50 [1, 4] | IC50 [2, 4] | IC50 [3] | also measured
1 | COc1ccccc1Sc1cc(NS(=O)(=O)c2ccc(C)cc2)c(NS(=O)(=O)c2ccc(C)cc2)cc1[N+](=O)[O-] [Compound 4b, N-[4-(2-methoxy-phenylsulfanyl)-5-nitro-2-(4-toluenesulfonylamino)-phenyl]-4-toluenesulfonamide] | 7 µM | 15 µM | 20 µM | –
2 | Cc1ccc(S(=O)(=O)Nc2cc(Sc3ccc(O)cc3)c([N+](=O)[O-])cc2NS(=O)(=O)c2ccc(C)cc2)cc1 [Compound 4d, N-[4-(4-hydroxy-phenylsulfanyl)-5-nitro-2-(4-toluenesulfonylamino)-phenyl]-4-toluenesulfonamide] | 5.5 µM | 23.9 µM | 23.9 µM | –
3 | Cc1ccc(S(=O)(=O)Nc2cc(Sc3ccc(Cl)cc3)c([N+](=O)[O-])cc2NS(=O)(=O)c2ccc(C)cc2)cc1 [Compound 4e, N-[4-(4-chloro-phenylsulfanyl)-5-nitro-2-(4-toluenesulfonylamino)-phenyl]-4-toluenesulfonamide] | 8 µM | 23 µM | 1.7 µM | –
4 | Cc1ccc(S(=O)(=O)Nc2cc(Sc3ccccc3Cl)c([N+](=O)[O-])cc2NS(=O)(=O)c2ccc(C)cc2)cc1 [Compound 4f, N-[4-(2-chloro-phenylsulfanyl)-5-nitro-2-(4-toluenesulfonylamino)-phenyl]-4-toluenesulfonamide] | 2.5 µM | 10.8 µM | 10.8 µM | –
5 | Cc1ccc(S(=O)(=O)Nc2cc(Sc3cccc(Cl)c3)c([N+](=O)[O-])cc2NS(=O)(=O)c2ccc(C)cc2)cc1 [Compound 4g, N-[4-(3-chloro-phenylsulfanyl)-5-nitro-2-(4-toluenesulfonylamino)-phenyl]-4-toluenesulfonamide] | 1.6 µM | 9.1 µM | 5.8 µM | –
6 | Cc1ccc(S(=O)(=O)Nc2cc(Sc3ccc(F)cc3)c([N+](=O)[O-])cc2NS(=O)(=O)c2ccc(C)cc2)cc1 [Compound 4h, N-[4-(4-fluoro-phenylsulfanyl)-5-nitro-2-(4-toluenesulfonylamino)-phenyl]-4-toluenesulfonamide] | 1.8 µM | 8.6 µM | 7.8 µM | –
7 | Cc1ccc(Sc2cc(NS(=O)(=O)c3ccc(C)cc3)c(NS(=O)(=O)c3ccc(C)cc3)cc2[N+](=O)[O-])cc1 [Compound 4i, N-[5-nitro-2-(4-toluenesulfonylamino)-4-(p-tolylsulfanyl)-phenyl]-4-toluenesulfonamide] | 1.7 µM | 10.3 µM | 5.1 µM | –
8 | Cc1ccc(S(=O)(=O)Nc2cc(Sc3ccccc3C)c([N+](=O)[O-])cc2NS(=O)(=O)c2ccc(C)cc2)cc1 [Compound 4j, N-[5-nitro-2-(4-toluenesulfonylamino)-4-(o-tolylsulfanyl)-phenyl]-4-toluenesulfonamide] | 1.7 µM | 12 µM | 8.6 µM | –
9 | Cc1ccc(S(=O)(=O)Nc2cc(Sc3cccc(C)c3)c([N+](=O)[O-])cc2NS(=O)(=O)c2ccc(C)cc2)cc1 [Compound 4k, N-[5-nitro-2-(4-toluenesulfonylamino)-4-(m-tolylsulfanyl)-phenyl]-4-toluenesulfonamide] | 1.9 µM | 9.4 µM | 3.1 µM | –
10 | Cc1ccc(S(=O)(=O)Nc2cc(Sc3c(C)cccc3C)c([N+](=O)[O-])cc2NS(=O)(=O)c2ccc(C)cc2)cc1 [Compound 4m, N-[4-(2,6-dimethyl-phenylsulfanyl)-5-nitro-2-(4-toluenesulfonylamino)-phenyl]-4-toluenesulfonamide] | 1 µM | 5.4 µM | 4.7 µM | –
11 | Cc1ccc(S(=O)(=O)Nc2cc(Sc3ccccc3C(C)C)c([N+](=O)[O-])cc2NS(=O)(=O)c2ccc(C)cc2)cc1 [Compound 4n, N-[4-(2-isopropyl-phenylsulfanyl)-5-nitro-2-(4-toluenesulfonylamino)-phenyl]-4-toluenesulfonamide] | 1.3 µM | 5.7 µM | 4.3 µM | –
12 | Cc1ccc(S(=O)(=O)Nc2cc(Sc3ccccc3)c([N+](=O)[O-])cc2NS(=O)(=O)c2ccc(C)cc2)cc1 [Compound 4o, N-[5-nitro-4-phenylsulfanyl-2-(4-toluenesulfonylamino)-phenyl]-4-toluenesulfonamide] | 1.3 µM | 5.7 µM | 1.8 µM | –
13 | Cc1ccc(S(=O)(=O)Nc2cc(SCc3ccccc3)c([N+](=O)[O-])cc2NS(=O)(=O)c2ccc(C)cc2)cc1 [Compound 4t, N-[4-benzylsulfanyl-5-nitro-2-(4-toluenesulfonylamino)-phenyl]-4-toluenesulfonamide] | 1.2 µM | 5.5 µM | – | –
14 | Cc1ccc(S(=O)(=O)Nc2ccc(Cl)cc2NS(=O)(=O)c2ccc(C)cc2)cc1 [Compound 6, N-[4-chloro-2-(4-toluenesulfonylamino)-phenyl]-4-toluenesulfonamide] | – | – | – | IC50 [1, 5]: > 222 µM; IC50 [2, 5]: > 222 µM
15 | COc1ccc(Oc2ccc(NS(=O)(=O)c3ccc([N+](=O)[O-])cc3)c(NS(=O)(=O)c3ccc([N+](=O)[O-])cc3)c2)cc1 [Compound 12r, N-[4-(4-methoxy-phenoxy)-2-(4-nitrobenzenesulfonylamino)-phenyl]-4-nitrobenzenesulfonamide] | – | – | – | IC50 [1, 5]: 6.6 µM; IC50 [2, 5]: > 167 µM
16 | Cc1ccc(S(=O)(=O)Nc2ccc(-n3cnc4ccccc43)cc2NS(=O)(=O)c2ccc(C)cc2)cc1 [Compound 17b, N-[4-(benzimidazol-1-yl)-2-(4-toluenesulfonylamino)-phenyl]-4-toluenesulfonamide] | – | – | – | IC50 [1, 5]: 21 µM; IC50 [2, 5]: 83 µM
17 | COc1ccc(Oc2ccc(NS(=O)(=O)c3ccc(C)cc3)c(OP(=O)(O)O)c2)cc1 [Compound 43, [5-(4-methoxy-phenoxy)-2-(4-toluenesulfonylamino)-phenyl]-phosphate] | – | – | – | IC50 [1, 6]: 13 µM; IC50 [2, 6]: > 215 µM
18 | COC(=O)c1cc(Oc2ccc(OC)cc2)ccc1NS(=O)(=O)c1ccc(C)cc1 [Compound 67, methyl 5-(4-methoxy-phenoxy)-2-(4-toluenesulfonylamino)-benzoate] | – | – | – | IC50 [1, 6]: > 234 µM; IC50 [2, 6]: > 234 µM
19 | COc1ccc(Oc2ccc3[nH]c(=O)[nH]c3c2)cc1 [Compound 72e, 5-(4-methoxy-phenoxy)-1,3-dihydro-benzoimidazol-2-one] | – | – | – | inhibition at 15 µg/mL [1]: 4%
20 | COc1ccc(Oc2ccc3c(c2)NS(=O)(=O)N3S(=O)(=O)c2ccc(C)cc2)cc1 [Compound 72f, 5-(4-methoxy-phenoxy)-1-(4-toluenesulfonyl)-1,3-dihydro-benzo[1,2,5]thiadiazole 2,2-dioxide] | – | – | – | inhibition at 15 µg/mL [1]: 14%

Now from value to molecule, other results behind:

Row | IC50 [1, 4] | IC50 [2, 4] | IC50 [3] | Structure (SMILES) | also measured
21 | 3.4 µM | 10.8 µM | 5.8 µM | COc1ccc(Sc2cc(NS(=O)(=O)c3ccc(C)cc3)c(NS(=O)(=O)c3ccc(C)cc3)cc2[N+](=O)[O-])cc1 [Compound 4a, N-[4-(4-methoxy-phenylsulfanyl)-5-nitro-2-(4-toluenesulfonylamino)-phenyl]-4-toluenesulfonamide] | –
22 | 3.5 µM | 8.3 µM | 7.5 µM | COc1cccc(Sc2cc(NS(=O)(=O)c3ccc(C)cc3)c(NS(=O)(=O)c3ccc(C)cc3)cc2[N+](=O)[O-])c1 [Compound 4c, N-[4-(3-methoxy-phenylsulfanyl)-5-nitro-2-(4-toluenesulfonylamino)-phenyl]-4-toluenesulfonamide] | –
